Data from patent US8440710B2, “HSL inhibitors useful in the treatment of diabetes” (Hoffmann-La Roche Inc., priority 2009, dated 2013).

Target: T1, human HSL (Homo sapiens, UniProt Q05469)
T1 construct: generate a full length human HSL ORF with a 3′-His6 tag; made in house; host or cells: High 5 insect cells (baculovirus, pFast-BAC)
T1 sequence (Q05469 1-1076): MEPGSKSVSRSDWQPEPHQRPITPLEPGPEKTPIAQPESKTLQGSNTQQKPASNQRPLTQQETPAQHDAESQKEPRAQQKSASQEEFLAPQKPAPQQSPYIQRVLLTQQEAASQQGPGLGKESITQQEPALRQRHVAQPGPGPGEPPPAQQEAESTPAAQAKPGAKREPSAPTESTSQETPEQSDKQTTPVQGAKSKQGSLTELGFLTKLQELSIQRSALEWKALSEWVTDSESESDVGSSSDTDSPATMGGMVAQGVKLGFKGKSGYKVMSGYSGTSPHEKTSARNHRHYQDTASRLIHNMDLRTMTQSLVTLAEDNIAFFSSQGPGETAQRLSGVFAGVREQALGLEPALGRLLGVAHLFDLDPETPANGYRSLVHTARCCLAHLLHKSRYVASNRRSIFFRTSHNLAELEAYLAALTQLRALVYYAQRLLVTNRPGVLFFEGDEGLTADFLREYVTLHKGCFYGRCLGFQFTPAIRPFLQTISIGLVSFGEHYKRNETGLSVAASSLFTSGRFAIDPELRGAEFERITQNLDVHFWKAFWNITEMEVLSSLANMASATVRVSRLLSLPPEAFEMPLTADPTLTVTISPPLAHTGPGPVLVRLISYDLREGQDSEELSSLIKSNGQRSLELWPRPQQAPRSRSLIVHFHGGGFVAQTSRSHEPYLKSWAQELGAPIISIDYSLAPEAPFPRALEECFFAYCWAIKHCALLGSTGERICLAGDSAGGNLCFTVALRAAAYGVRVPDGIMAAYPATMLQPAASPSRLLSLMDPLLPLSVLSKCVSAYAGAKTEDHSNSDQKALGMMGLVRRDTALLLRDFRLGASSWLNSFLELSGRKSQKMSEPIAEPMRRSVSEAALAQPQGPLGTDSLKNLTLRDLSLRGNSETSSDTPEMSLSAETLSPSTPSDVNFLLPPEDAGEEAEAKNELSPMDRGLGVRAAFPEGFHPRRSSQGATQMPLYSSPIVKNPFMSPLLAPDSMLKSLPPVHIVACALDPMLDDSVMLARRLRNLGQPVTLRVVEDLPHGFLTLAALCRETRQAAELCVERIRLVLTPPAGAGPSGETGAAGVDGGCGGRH
Experiment: Human Hormone-Sensitive Lipase (HSL) enzyme inhibition assay (colorimetric, DMPT substrate)
Assay type: biochemical
Conditions: human full length HSL-His6, 2,3-dimercapto-1-propanol tributyrate substrate, 37° C. 20 minutes, absorbance at 405 nm; read-out: HSL hum IC50
In short: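 Full-length human HSL with C-terminal His6, expressed in baculovirus-infected High 5 cells and Ni-NTA purified, was added (15 ug/ml stock) to 1.5 mM DMPT in 100 mM MOPS pH 7.2, 0.2 mg/ml fatty acid-free BSA containing compound. After 20 min at 37 °C, DTNB with SDS/Triton X-100 was added; A405 read after 15 min at RT.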

Row | SMILES | IC50
1 | O=C1N(c2ccc(OCC(F)(F)F)cc2)CC[C@]12CC[C@](O)(COCC1CC1)CC2 [Example 256, (5α,8β)-8-[(Cyclopropylmethoxy)methyl]-8-hydroxy-2-[4-(2,2,2-trifluoro-ethoxy)-phenyl]-2-aza-spiro[4.5]decan-1-one] | 690 nM
2 | O=C1N(c2ccc(OCC(F)(F)F)cc2)CC[C@]12CC[C@@](O)(COCC1CC1)CC2 [Example 257, (5α,8α)-8-[(Cyclopropylmethoxy)methyl]-8-hydroxy-2-[4-(2,2,2-trifluoro-ethoxy)-phenyl]-2-aza-spiro[4.5]decan-1-one] | 10 nM
3 | COC[C@]1(O)CC[C@]2(CCN(c3ccc(OCC(F)(F)F)cc3)C2=O)CC1 [Example 258, (5α,8α)-8-Hydroxy-8-methoxymethyl-2-[4-(2,2,2-trifluoro-ethoxy)-phenyl]-2-aza-spiro[4.5]decan-1-one] | 70 nM
4 | O=C1N(c2ccc(OCC(F)(F)F)cc2)CC[C@]12CC[C@@](O)(COCC1CCO1)CC2 (stereo partly drawn) [Example 259, (5α,8α)-8-Hydroxy-8-(oxetan-2-ylmethoxymethyl)-2-[4-(2,2,2-trifluoro-ethoxy)-phenyl]-2-aza-spiro[4.5]decan-1-one] | 80 nM
5 | CC1(COC[C@]2(O)CC[C@]3(CCN(c4ccc(OCC(F)(F)F)cc4)C3=O)CC2)COC1 [Example 260, (5α,8α)-8-Hydroxy-8-(3-methyl-oxetan-3-ylmethoxymethyl)-2-[4-(2,2,2-trifluoro-ethoxy)-phenyl]-2-aza-spiro[4.5]decan-1-one] | 60 nM
6 | CCSC[C@]1(O)CC[C@]2(CCN(c3ccc(OCC(F)(F)F)cc3)C2=O)CC1 [Example 261, (5α,8α)-8-Ethylsulfanylmethyl-8-hydroxy-2-[4-(2,2,2-trifluoro-ethoxy)-phenyl]-2-aza-spiro[4.5]decan-1-one] | 10 nM
7 | O=C1N(c2ccc(OCC(F)(F)F)cc2)CC[C@]12CC[C@@](O)(COc1cccc(F)c1)CC2 [Example 262, (5α,8α)-8-(3-Fluoro-phenoxymethyl)-8-hydroxy-2-[4-(2,2,2-trifluoro-ethoxy)-phenyl]-2-aza-spiro[4.5]decan-1-one] | 70 nM
8 | O=C1N(c2ccc(OCC(F)(F)F)cc2)CC[C@]12CC[C@@](O)(COc1ccc(F)cc1)CC2 [Example 263, (5α,8α)-8-(4-Fluoro-phenoxymethyl)-8-hydroxy-2-[4-(2,2,2-trifluoro-ethoxy)-phenyl]-2-aza-spiro[4.5]decan-1-one] | 20 nM
9 | CCc1ccc(N2CC[C@]3(CC[C@](O)(COCC(F)F)CC3)C2=O)cc1 [Example 264, (5α,8β)-8-(2,2-Difluoro-ethoxymethyl)-2-(4-ethyl-phenyl)-8-hydroxy-2-aza-spiro[4.5]decan-1-one] | 200 nM
10 | CCc1ccc(N2CC[C@]3(CC[C@@](O)(COCC(F)F)CC3)C2=O)cc1 [Example 265, (5α,8α)-8-(2,2-Difluoro-ethoxymethyl)-2-(4-ethyl-phenyl)-8-hydroxy-2-aza-spiro[4.5]decan-1-one] | 40 nM
11 | CCCOC[C@]1(O)CC[C@@]2(CCN(c3ccc(OCC(F)(F)F)nc3)C2=O)CC1 [Example 266, (5α,8β)-8-Hydroxy-8-propoxymethyl-2-[6-(2,2,2-trifluoro-ethoxy)-pyridin-3-yl]-2-aza-spiro[4.5]decan-1-one] | 370 nM
12 | CCCOC[C@]1(O)CC[C@]2(CCN(c3ccc(OCC(F)(F)F)nc3)C2=O)CC1 [Example 267, (5α,8α)-8-Hydroxy-8-propoxymethyl-2-[6-(2,2,2-trifluoro-ethoxy)-pyridin-3-yl]-2-aza-spiro[4.5]decan-1-one] | 30 nM
13 | CCCOC[C@]1(O)CC[C@]2(CCN(c3ccc(O[C@@H](C)C(F)(F)F)nc3)C2=O)CC1 [Example 268, (5α,8α)-8-Hydroxy-8-propoxymethyl-2-[6-((S)-2,2,2-trifluoro-1-methyl-ethoxy)-pyridin-3-yl]-2-aza-spiro[4.5]decan-1-one] | 20 nM
